From ChEMBL document CHEMBL4049409, “Structure-based discovery of LpxC inhibitors” (Bioorg Med Chem Lett, 2017)
Values after ≈ are worked out from the molar mass of the structure shown.

Experiments:
[1] = test system: Pseudomonas aeruginosa; test: Antibacterial activity against Pseudomonas aeruginosa isolate 847; type: functional
[2] = biological target: T1, UDP-3-O-acyl-N-acetylglucosamine deacetylase (Pseudomonas aeruginosa (strain ATCC 15692 / PAO1 / 1C / PRS 101 / LMG12228), UniProt P47205); test: Inhibition of LpxC in Pseudomonas aeruginosa isolate 44 ATCC 27853
T1 sequence (P47205 whole entry): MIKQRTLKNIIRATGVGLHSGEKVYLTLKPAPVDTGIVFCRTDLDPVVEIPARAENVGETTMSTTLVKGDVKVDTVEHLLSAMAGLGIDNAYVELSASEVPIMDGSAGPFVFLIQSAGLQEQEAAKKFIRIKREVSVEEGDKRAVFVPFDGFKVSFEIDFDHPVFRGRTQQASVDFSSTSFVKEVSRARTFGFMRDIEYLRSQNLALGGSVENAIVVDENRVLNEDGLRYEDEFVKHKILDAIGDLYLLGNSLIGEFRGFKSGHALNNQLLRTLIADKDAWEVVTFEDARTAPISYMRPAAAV

[3] = test system: Pseudomonas aeruginosa; test: Antibacterial activity against Pseudomonas aeruginosa isolate 44 ATCC 27853; type: functional
[4] = test system: Pseudomonas aeruginosa; test: Antibacterial activity against Pseudomonas aeruginosa isolate 839 harboring mexAB-oprM deletion mutant; type: functional
[5] = biological target: T2, UDP-3-O-acyl-N-acetylglucosamine deacetylase (Escherichia coli K-12, UniProt P0A725); test: Inhibition of LpxC in Escherichia coli isolate 35 ATCC 25922; set-up: species or system Escherichia coli ATCC 25922
T2 sequence (P0A725 whole entry): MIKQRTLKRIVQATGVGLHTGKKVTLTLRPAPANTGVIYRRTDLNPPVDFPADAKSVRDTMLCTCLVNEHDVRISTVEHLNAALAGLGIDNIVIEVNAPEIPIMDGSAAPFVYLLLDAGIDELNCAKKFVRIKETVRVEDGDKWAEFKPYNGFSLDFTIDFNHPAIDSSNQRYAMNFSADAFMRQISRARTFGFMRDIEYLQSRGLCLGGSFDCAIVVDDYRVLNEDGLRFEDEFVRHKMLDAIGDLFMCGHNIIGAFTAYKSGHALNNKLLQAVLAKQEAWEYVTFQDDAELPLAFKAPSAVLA

[6] = biological target: T1, UDP-3-O-acyl-N-acetylglucosamine deacetylase; test: Inhibition of LpxC in Pseudomonas aeruginosa isolate 847
[7] = test system: Escherichia coli; test: Antibacterial activity against Escherichia coli isolate 35 ATCC 25922; type: functional
[8] = test system: Mus musculus; test: Dose normalized AUC in mouse at 10 mg/kg, sc; type: ADME, organism-based; conditions: in vivo
[9] = Volume of distribution at steady state in mouse at 2 mg/kg, iv; type: ADME, organism-based; conditions: in vivo, read-out: Vdss
[10] = test system: Rattus norvegicus; test: Dose normalized AUC in rat at 10 mg/kg, iv; type: ADME, organism-based; conditions: in vivo
[11] = Bioavailability in mouse at 10 mg/kg, sc; type: ADME, organism-based; conditions: in vivo
[12] = Aqueous solubility of the compound in pH 7.4 buffer; type: physicochemical
[13] = test system: Pseudomonas aeruginosa; test: Antibacterial activity against Pseudomonas aeruginosa assessed as reduction in bacterial burden in in-vivo blood infection septicemia model; type: functional; conditions: read-out: PD50
[14] = Clearance in rat at 10 mg/kg, iv; type: ADME, organism-based; conditions: in vivo
[15] = Fraction unbound in cynomolgus monkey plasma at 10 uM by equilibrium dialysis method; type: ADME, cell-free, Macaca fascicularis
[16] = Clearance in mouse at 10 mg/kg, sc; type: ADME, organism-based; conditions: in vivo
[17] = Fraction unbound in mouse plasma at 10 uM by equilibrium dialysis method; type: ADME, cell-free
[18] = Half life in cynomolgus monkey at 10 mg/kg, iv; type: ADME, organism-based, Macaca fascicularis; conditions: in vivo
[19] = test system: Cynomolgus monkey; test: Dose normalized AUC in cynomolgus monkey at 10 mg/kg, iv; type: ADME, organism-based, Macaca fascicularis; conditions: in vivo
[20] = Half life in mouse at 10 mg/kg, sc; type: ADME, organism-based; conditions: in vivo
[21] = Half life in mouse at 2 mg/kg, iv; type: ADME, organism-based; conditions: in vivo
[22] = test system: Escherichia coli; test: Antibacterial activity against Escherichia coli assessed as 2 log reduction in bladder bacterial burden in in-vivo urinary tract infection model; type: functional
[23] = test system: Mus musculus; test: Dose normalized AUC in mouse at 2 mg/kg, iv; type: ADME, organism-based; conditions: in vivo
[24] = Fraction unbound in human plasma at 10 uM by equilibrium dialysis method; type: ADME, cell-free
[25] = test system: Klebsiella pneumoniae; test: Antibacterial activity against Klebsiella pneumoniae assessed as 3 log reduction in lung bacterial burden in in-vivo lung infection model; type: functional
[26] = test system: Rattus norvegicus; test: Acute toxicity in rat at 200 mg/kg using capsitol capsulated formulation; type: organism-based; conditions: in vivo
[27] = Clearance in cynomolgus monkey at 10 mg/kg, iv; type: ADME, organism-based, Macaca fascicularis; conditions: in vivo
[28] = Clearance in mouse at 2 mg/kg, iv; type: ADME, organism-based; conditions: in vivo
[29] = Volume of distribution at steady state in rat at 10 mg/kg, iv; type: ADME, organism-based; conditions: in vivo, read-out: Vdss
[30] = Volume of distribution at steady state in cynomolgus monkey at 10 mg/kg, iv; type: ADME, organism-based, Macaca fascicularis; conditions: in vivo, read-out: Vdss
[31] = Displacement of sodium channel site 2 in [3H]Batrachotoxinin from Wistar rat brain membranes after 60 mins; set-up: species or system Membrane
[32] = test system: Rattus norvegicus; test: Toxicity in rat at 100 mg/kg, iv administered as bolus dose using 10% capsitol formulation for 7 days; type: organism-based; conditions: in vivo, 168 h
[33] = biological target: Sigma intracellular receptor 2 (Homo sapiens) (UniProt Q5BJF2); test: Antagonist activity at sigma2 receptor (unknown origin) at 25 uM relative to control
Sequence of Sigma intracellular receptor 2 (Homo sapiens) (Q5BJF2 whole entry): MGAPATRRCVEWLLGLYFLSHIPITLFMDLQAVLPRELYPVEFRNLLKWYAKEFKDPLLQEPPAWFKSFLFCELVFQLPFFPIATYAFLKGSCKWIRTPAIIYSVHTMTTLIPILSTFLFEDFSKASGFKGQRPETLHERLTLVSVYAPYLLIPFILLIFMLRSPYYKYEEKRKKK

[34] = biological target: T3, Muscarinic acetylcholine receptor M2 (Homo sapiens) (UniProt P08172); test: Antagonist activity at muscarinic M2 receptor (unknown origin) at 25 uM relative to control
T3 sequence (whole entry): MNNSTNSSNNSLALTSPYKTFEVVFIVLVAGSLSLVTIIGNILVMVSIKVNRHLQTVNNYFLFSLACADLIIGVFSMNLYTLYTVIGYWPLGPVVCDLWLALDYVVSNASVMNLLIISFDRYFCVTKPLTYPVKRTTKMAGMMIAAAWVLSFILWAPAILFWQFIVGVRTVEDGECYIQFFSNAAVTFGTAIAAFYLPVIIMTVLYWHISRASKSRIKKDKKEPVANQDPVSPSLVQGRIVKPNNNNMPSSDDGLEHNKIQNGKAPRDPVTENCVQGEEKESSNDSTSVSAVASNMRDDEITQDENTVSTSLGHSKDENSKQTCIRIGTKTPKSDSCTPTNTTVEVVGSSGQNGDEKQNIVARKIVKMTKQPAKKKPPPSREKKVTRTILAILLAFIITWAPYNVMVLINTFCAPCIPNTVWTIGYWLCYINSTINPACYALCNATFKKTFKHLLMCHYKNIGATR

[35] = test system: Pseudomonas aeruginosa; test: Antibacterial activity against Pseudomonas aeruginosa assessed as 3-log reduction in bacterial burden in in-vivo lung infection model; type: functional
[36] = Fraction unbound in rat plasma at 10 uM by equilibrium dialysis method; type: ADME, cell-free
[37] = species: Rattus norvegicus; test: Displacement of sodium channel site 2 in [3H]Batrachotoxinin from Wistar rat brain membranes at 25 uM after 60 mins relative to control; conditions: Membrane
[38] = Half life in rat at 10 mg/kg, iv; type: ADME, organism-based; conditions: in vivo
[39] = test system: Klebsiella pneumoniae; test: Antibacterial activity against Klebsiella pneumoniae isolate 21 ATCC 4352; type: functional
[40] = test system: Pseudomonas aeruginosa; test: Antibacterial activity against Pseudomonas aeruginosa assessed as 3-log reduction in bacterial burden in in-vivo thigh infection model; type: functional
[41] = test system: Rattus norvegicus; test: Acute toxicity in rat at 75 mg/kg using Tween-80 formulation; type: organism-based; conditions: in vivo

CC(C)(N)[C@H](N[C@H]1CCc2cc(C#Cc3ccc(CN4CCOCC4)cc3)ccc21)C(=O)NO
MIC [1]: 0.5 µg/mL (≈ 1.08 µM)
IC50 [2]: 6 nM
MIC [3]: 4 µg/mL (≈ 8.65 µM)
MIC [4]: 0.25 µg/mL (≈ 0.54 µM)
IC50 [5]: 2 nM
IC50 [6]: 1 nM
MIC [7]: 0.5 µg/mL (≈ 1.08 µM)

CC(C)(N)[C@H](N[C@H]1CCc2cc(C#Cc3ccc(Cn4ccnc4CO)cc3)ccc21)C(=O)NO
AUC/dose [8]: 0.7 µg·h/mL/mg/kg
MIC [1]: 4 µg/mL (≈ 8.45 µM)
Vd [9]: 0.4 L/kg
AUC/dose [10]: 1.07 µg·h/mL/mg/kg
bioavailability [11]: 74%
solubility [12]: 850 µg/mL (≈ 1790 µM)
ED50 [13]: 13 mg/kg
clearance [14]: 15.6 mL/min/kg
fraction unbound at 10 µM [15]: 0.047
CL/F [16]: 24.4 mL/min/kg
IC50 [2]: 4 nM
fraction unbound at 10 µM [17]: 0.067
half-life [18]: 392 min
AUC/dose [19]: 4.07 µg·h/mL/mg/kg
MIC [3]: 1 µg/mL (≈ 2.11 µM)
MIC90 [3]: 4 µg/mL (≈ 8.45 µM)
half-life [20]: 72 min
half-life [21]: 102 min
ED [22]: 15.1 mg/kg
AUC/dose [23]: 0.95 µg·h/mL/mg/kg
MIC [4]: 0.125 µg/mL (≈ 0.264 µM)
IC50 [5]: 4 nM
fraction unbound at 10 µM [24]: 0.06
ED [25]: 2.7 mg/kg
Activity [26]: Non-Toxic
clearance [27]: 4.39 mL/min/kg
clearance [28]: 17.5 mL/min/kg
Vd [29]: 0.68 L/kg
Vd [30]: 0.38 L/kg
IC50 [31]: 400 nM
Activity [32]: Non-Toxic
IC50 [6]: 2 nM
inhibition [33]: > 50%
inhibition [34]: > 50%
ED [35]: 32 mg/kg
MIC [7]: 0.5 to 1 µg/mL (≈ 1.06 to 2.11 µM)
MIC90 [7]: 1 µg/mL (≈ 2.11 µM)
fraction unbound at 10 µM [36]: 0.05
inhibition [37]: 97%
half-life [38]: 112 min
MIC [39]: 0.125 µg/mL (≈ 0.264 µM)
MIC90 [39]: 8 µg/mL (≈ 16.9 µM)
ED [40]: 25 mg/kg
Activity [41]: Toxic
